Publication PMC4840416, “Constructing and Validating High-Performance MIEC-SVM Models in Virtual Screening for Kinases: A Better Way for Actives Discovery” (Scientific Reports, 2016)

target: T1, recombinant human ALK protein (Homo sapiens, UniProt Q9UM73); assay: LanthaScreen TR-FRET in vitro inhibitory activity assay of ALK; format: biochemical; conditions: compound at 2ug/ml
T1 construct: purchased Life Technologies Inc. PV3867
Description: All reagents and anhydrous solvents were obtained from commercial sources and used as received. The positive control inhibitors of ALK, crizotinib and ceritinib, were purchased from Bangshunda Technology and Selleck Chemicals, respectively. The compounds were dissolved in 100% dimethyl sulfoxide (DMSO) as a 10 mM stock solution. The final DMSO concentration in each reaction was less than 1%. Purified recombinant human ALK protein (Catalog number: PV3867) as well as reagents for TR-FRET assay, including Lantha Screen™ Tb-PY20 (Catalog number: PV3552), Fluorescein-Poly GT (Catalog number: PV3610), ATP (Catalog number: PV3227), Kinase Quench Buffer (Catalog number: P2832), Kinase Buffer (Catalog number: PV3189), and Antibody Dilution Buffer (Catalog number: PV3574), were all obtained from Life Technologies Inc.
Lantha Screen™ kinase assay based on TR-FRET technology was used to measure the inhibitory activity of the screened compounds. All the assays were carried out in 384-well plate format. The 4 × test compounds were firstly prepared before the enzyme reaction starts. The 4 × recombinant human ALK protein and 2 × Substrate/ATP mixture were separately prepared in 50 mM HEPES (pH = 7.5), 0.01% BRIJ-35, 10 mM MgCl2, 4 mM MnCl2, 1 mM EGTA, and 2 mM DTT. The final 10 μL kinase reaction consists of 5 μL 1 × Substrate/ATP mixture (0.2 μM substrate and 5 μM ATP), 2.5 μL ALK (5 ng/ml ALK protein), and 2.5 μL 1 × test compounds with desired concentration. The assay plate was shook on a plate shaker for 30 seconds to mix the reactions thoroughly. After 1 hour kinase reaction incubation at room temperature (20 ~ 25 °C), 10 μL of pre-prepared 20 mM EDTA and 4 nM Tb-labeled antibody solution was then added to terminate the kinase reactions and to initiate antibody binding, and the assay plate was incubated for another 1 hour at room temperature. Then, the assay plate was placed into a fluorescence plate reader (BioTek Synergy™ 4) to measure both fluoresce in and terbium emission signals (excitation: 340 nm; emission: 520 and 495 nm, respectively) with 100 μs delay time and 200 μs integration time. To determine the IC50 values, the resulted inhibitory activity calculated from TR-FRET emission ratio (i.e. fluoresce in emission intensity/terbium emission intensity) was plotted against the concentration of inhibitor, and the data was fitted to a dose-response curve with a variable slop.

T1 sequence (Q9UM73 1058-1620 limits assumed): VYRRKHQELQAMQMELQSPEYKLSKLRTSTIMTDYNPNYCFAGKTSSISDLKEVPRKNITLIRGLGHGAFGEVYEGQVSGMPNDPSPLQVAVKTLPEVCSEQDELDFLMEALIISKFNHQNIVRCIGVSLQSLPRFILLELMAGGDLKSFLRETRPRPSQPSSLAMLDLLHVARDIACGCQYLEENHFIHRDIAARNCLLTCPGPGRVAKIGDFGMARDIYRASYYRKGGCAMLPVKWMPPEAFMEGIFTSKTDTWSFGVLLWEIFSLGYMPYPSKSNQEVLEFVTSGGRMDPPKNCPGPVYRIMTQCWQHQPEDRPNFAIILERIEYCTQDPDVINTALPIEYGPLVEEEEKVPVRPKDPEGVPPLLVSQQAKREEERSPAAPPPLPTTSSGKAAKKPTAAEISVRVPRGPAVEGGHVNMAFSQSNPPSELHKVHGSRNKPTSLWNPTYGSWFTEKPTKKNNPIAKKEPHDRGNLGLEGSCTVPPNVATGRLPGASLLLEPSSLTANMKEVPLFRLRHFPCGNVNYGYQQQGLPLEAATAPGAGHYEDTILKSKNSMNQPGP

| Structure (SMILES) | Averaged Enzymatic Inhibition @ 2ug/ml (%) |
| --- | --- |
| Cc1ccc(OS(=O)(=O)c2cccc(C(=O)Nc3ccccc3)c2)c(-n2nc3ccccc3n2)c1 [AG-690/11836103] | -16.78% |
| Cc1ccc(-c2cc(-c3c(-c4ccccc4)c4cc(Cl)ccc4[nH]c3=O)nc3ccccc23)cc1 [AG-690/12134081] | 10.575% |
| O=C1c2ccccc2-c2c1c(-c1cccc(Oc3ccccc3)c1)nc1ccc3ccccc3c21 [AG-690/12869023] | 12.235% |
| c1ccc(-c2oc3ncn4nc(CSc5nc6ccccc6s5)nc4c3c2-c2ccccc2)cc1 [AG-690/12869680] | -1.245% |
| Cc1ccccc1-c1nnc(-c2ccc(-c3ccccc3)cc2)n1-c1ccccc1 [AG-690/33068064] | 4.62% |
| c1ccc2c(c1)Oc1ccccc1C2=C1c2ccccc2Oc2ccccc21 [AG-690/36541063] | 11.335% |
| CC1=C(C(=O)Nc2ccccc2)C(c2ccccc2)n2c(s/c(=C/C=C\c3ccccc3)c2=O)=N1 (stereo not shown) [AG-690/37079179] | 15.845% |
| O=C1c2ccccc2-c2onc3c(Sc4ccccc4)cc(Sc4ccccc4)c1c23 [AG-690/40097114] | 1.725% |
| CC(C)(C)c1ccc(Oc2cc(Nc3ccccc3)c3c4c(onc24)-c2ccccc2C3=O)cc1 [AG-690/40097127] | 11.435% |
| Cc1ccc(-c2cc(-c3ccccc3Cl)c3c(N)c(-c4nnc(-c5ccccc5)o4)sc3n2)cc1 [AG-690/40749514] | -4.41% |
| COc1ccc(-c2cc(C(=O)Nc3ccccc3-c3ccccc3)c3ccccc3n2)cc1 [AG-690/40749597] | 2.49% |
| CCOC(=O)c1c(/N=C(/Nc2ccccc2-c2ccccc2)c2ccccc2)sc2c1CCCC2 [AG-690/40750112] | 16.665% |
| Cc1ccc(S(=O)(=O)N(Cc2n[nH]c(=S)n2-c2ccccc2)c2cccc(Cl)c2)cc1 [AG-690/40751357] | 8.965% |
| CCCCC1CCC(c2nc3c4c(c(Nc5cccc(C)c5)ccc4n2)C(=O)c2ccccc2-3)CC1 (stereo not shown) [AH-034/08463011] | 1.2% |
| CCOc1cc(/C=N\NC(=O)CCc2ccccc2)ccc1OC(=O)/C=C/c1ccccc1 [AH-487/37011044] | -17.16% |
| Cc1cccc(N(CC(=O)N/N=C/c2cccc(Br)c2)S(=O)(=O)c2ccccc2)c1C [AH-487/40936079] | 0.44% |
| O=C1c2cccc3c2C2=S(Sc4ccc(NC5CCCCC5)c1c42)N3C1CCCCC1 (stereo not shown) [AH-541/12737056] | 12.4% |
| O=C(Nc1ccccc1)c1c(-c2ccccc2)c(C(=O)c2ccc([N+](=O)[O-])cc2)n2ccccc12 [AI-204/31728031] | 3.565% |
| Cc1nc(Nc2nc(CSc3nnnn3-c3ccccc3)cc(=O)[nH]2)nc2ccccc12 [AJ-292/42284747] | 1.31% |
| Cc1ccc(C(=O)CC2(O)C(=O)N(CCc3ccccc3)c3ccccc32)cc1 (stereo not shown) [AK-778/40897568] | 18.54% |
| O=C(CC1(O)C(=O)N(CCc2ccccc2)c2ccccc21)c1ccc2c(c1)OCCO2 (stereo not shown) [AK-778/41314821] | -1.935% |
| C(=C(\Cn1nc(-c2ccccc2)c(-c2ccccc2)c1-c1ccccc1)c1ccccc1)/c1ccccc1 [AK-830/13217169] | 2.08% |
| Cc1ccc(C(=O)COC(=O)c2ccc3nc4c5ccccc5c5ccccc5c4nc3c2)cc1C [AK-918/13399094] | 8.005% |
| O=C(COC(=O)c1c(-c2ccccc2)c(-c2ccccc2)nc2ccccc12)c1ccccc1 [AK-918/15391011] | -13.24% |
| C(=N\Nc1nnc(-c2ccccc2)c(-c2ccccc2)n1)/c1c2ccccc2cc2ccccc12 [AK-968/11200121] | -0.805% |
| Cc1cccc(N=c2sc(C3=c4cc(C)ccc4=NC3=O)c(O)n2-c2cccc(C)c2)c1 [AK-968/11780042] | -8.175% |
| Cc1ccc(-c2cc(C(=O)N3CCN(C/C=C/c4ccccc4)CC3)c3ccccc3n2)cc1C [AK-968/11842315] | 10.91% |
| COc1ccccc1C(=O)Nc1ccc2oc(-c3cccc4c(Br)cccc34)nc2c1 [AK-968/12097078] | -2.025% |

| Structure (SMILES) | Averaged Enzymatic Inhibition @ 2ug/ml (%) |
| --- | --- |
| CCC1CCc2c(sc(NC(=O)c3c(-c4c(Cl)cccc4Cl)noc3C)c2C(N)=O)C1 (stereo not shown) [AK-968/12265292] | -4.47% |
| Cc1onc(-c2ccccc2)c1C(=O)Nc1cccc2c1C(=O)c1ccccc1C2=O [AK-968/13025057] | 30.35% |
| CCCOc1ccc(-c2cc(C(=O)N3CCC(Cc4ccccc4)CC3)c3ccccc3n2)cc1 [AK-968/15360205] | -17.96% |
| O=C1OC(c2ccccc2Cl)=N/C1=C\c1ccc(OCc2ccccc2)cc1OCc1ccccc1 [AK-968/37055166] | -8.735% |
| CCC(Oc1ccc2ccccc2c1Br)C(=O)NNC(=O)c1cc2cc(Br)ccc2oc1=O (stereo not shown) [AK-968/37077046] | 3.24% |
| Cc1ccc(-c2csc(N3N=C(c4ccc5c(c4)CCCC5)CC3c3ccccc3)n2)cc1 (stereo not shown) [AL-182/40744490] | -4.165% |
| Nc1nc(Nc2cccc(Cl)c2)sc1C(=O)C12CC3CC(CC(C3)C1)C2 [AM-807/12426163] | 5.915% |
| CN1CCc2nc3sc(C(=O)c4ccc(-c5ccccc5)cc4)c(N)c3c(-c3cccs3)c2C1 [AM-807/14959628] | -12.705% |
| CCOc1cc(/C=C2/SC(=O)N(Cc3c(F)cccc3Cl)C2=O)ccc1O [AM-879/41780072] | 12.385% |
| Cc1cc(C)c2oc(-c3ccc(C)c(NC(=O)C(c4ccccc4)c4ccccc4)c3)nc2c1 [AN-465/13859038] | 40.815% |
| CCn1cc(/C=C2\C(=O)NC(=S)N(c3cccc4ccccc34)C2=O)c2ccccc21 [AN-465/14954307] | 46.45% |
| Cc1cc(C)c2oc(-c3cccc(NC(=O)COc4cc(Cl)c(Cl)cc4Cl)c3C)nc2c1 [AN-465/40934866] | 2.22% |
| N#Cc1c(N)nc2sc(C(=O)Nc3ccccc3)c(N)c2c1-c1cccs1 [AN-512/12594125] | 10.48% |
| C/C(=N\Nc1nc(-c2ccc(F)cc2)cs1)c1nonc1C [AN-648/40740338] | 23.375% |
| Cc1ccnc(NC(=O)c2ccc(Cl)c(NC(=O)c3ccc(-c4ccccc4)cc3)c2)c1 [AN-652/43161615] | 17.89% |
| c1ccc(CSc2nnc3c(n2)OC(c2c4ccccc4cc4ccccc24)Nc2ccccc2-3)cc1 (stereo not shown) [AN-655/13300050] | 23.865% |
| CCc1ccc2[nH]c3nc(N/N=C/c4ccc(-c5cccc(C(F)(F)F)c5)o4)nnc3c2c1 [AN-655/15262058] | 11.82% |
| Cc1ccc(-n2cnc3c(sc4nnc(-c5ccccc5)c(-c5ccccc5)c43)c2=O)cc1 [AN-789/13819006] | 1.595% |
| O=C(COc1ccccc1-c1cnn(-c2ccccc2)c1)N/N=C/c1cc2ccccc2nc1Cl [AN-829/42007480] | 2.755% |
| N#Cc1c(N)nc2sc(C(=O)Nc3ccc(Cl)cc3)c(N)c2c1-c1cccs1 [AN-848/43256373] | -5% |
| O=C1c2ccc(-c3nc4ccccc4s3)cc2C(=O)N1c1cccc(-c2nc3ccccc3s2)c1 [AN-979/41713847] | 5.385% |
| O=C(Nc1cccc(S(=O)(=O)N2CCN(C(=O)c3ccccc3)CC2)c1)C1CCCCC1 [AO-080/43378230] | -9.72% |
| O=C(Cn1cc(/C=C2\SC(=NC3CCCC3)N(C3CCCC3)C2=O)c2ccccc21)N1CCOCC1 [AO-081/15386972] | -1.4% |
| O=C(Nc1ccc(Cl)cc1)C1CC(=O)N(c2ccc(Oc3ccccc3)cc2)C1 (stereo not shown) [AO-081/15572353] | -3.26% |
| COc1cccc(-c2cc3c(c(N)c2C#N)c(=O)oc2ccccc23)c1 [AO-476/43362608] | 9.055% |
| O=C(c1cccc(S(=O)(=O)NC2CCCCCC2)c1)c1cccc(S(=O)(=O)NC2CCCCCC2)c1 [AP-866/40876225] | 9.84% |
| N#CC1=C(N)Oc2n[nH]c(-c3ccccc3)c2C1c1cccc(OCc2cccc3ccccc23)c1 (stereo not shown) [AP-964/41446891] | 13.75% |
